Test results: patent US9743646B2, “Method of establishing isogenic multi-xenograft model and the use thereof” (Crown Bioscience Inc. (Taicang), priority 2014, dated 2017)

Experiments:
Type in all cases: in vivo, Nude mice
[1] = system: SW48-parental xenograft (HD PAR-006, KRAS WT); assay: Tumor volume of SW48-parental xenograft in isogenic dual-xenograft mice; conditions: Erlotinib 50 mg/kg p.o. once daily, 14 days, vs saline
Procedure: The SW48 series colorectal adenocarcinoma cells were obtained from Horizon Discovery Ltd (see below in Table 1 for Catalogue number details), and maintained in vitro as a monolayer culture in McCoy's 5A medium supplemented with 10% heat inactivated fetal bovine serum, 2 mM L-glutamine, with or without G418, at 37° C. in an atmosphere of 5% CO2 in air. The tumor cells were routinely subcultured every 3-5 days by trypsin-EDTA treatment. Cells growing in an exponential growth phase were harvested and counted for tumor inoculation. HD 103-002 cell line was derived from parental SW48 cell line HD PAR-006 with heterozygous knock-in of KRAS activating mutation-G13D; HD 103-007 cell line was derived from parental SW48 cell line HD PAR-006 with heterozygous knock-in of KRAS activating mutation-G12V. […]
(§1) The major endpoint was to evaluate the tumor growth. Tumor sizes were measured twice weekly in two dimensions using a caliper, and the volume were expressed in mm3 using the formula: V=0.5 a×b^2, where a and b are the long and short diameters of the tumor, respectively.

[2] = system: SW48-KRAS (G12V/+) xenograft (HD 103-007); assay: Tumor volume of SW48-KRAS (G12V/+) xenograft in isogenic dual-xenograft mice
Procedure: (§2) The SW48 series colorectal adenocarcinoma cells were obtained from Horizon Discovery Ltd (see below in Table 1 for Catalogue number details), and maintained in vitro as a monolayer culture in McCoy's 5A medium supplemented with 10% heat inactivated fetal bovine serum, 2 mM L-glutamine, with or without G418, at 37° C. in an atmosphere of 5% CO2 in air. The tumor cells were routinely subcultured every 3-5 days by trypsin-EDTA treatment. Cells growing in an exponential growth phase were harvested and counted for tumor inoculation. HD 103-002 cell line was derived from parental SW48 cell line HD PAR-006 with heterozygous knock-in of KRAS activating mutation-G13D; HD 103-007 cell line was derived from parental SW48 cell line HD PAR-006 with heterozygous knock-in of KRAS activating mutation-G12V.
(§3) Each mouse is grafted subcutaneously at the left and right flank with SW48 tumor cells (1×10^7 cells) in 0.1 ml of PBS for tumor development, among which 15 mouse are grafted with 1×10^7HD PAR-006 cells at their left flank and with 1×10^7 HD 103-002 cells at their right flank, and the other 15 mouse are grafted with 1×10^7 HD PAR-006 cells at their left flank and with 1×10^7 HD103-007 cells at their right flank. Mice with xenografts are then allow sufficient time (in present embodiment, around 5-8 days) to develop solid tumor.
(§4) Isogenic dual-xenograft mice produced in accordance to the methods described in Example 1 were used to evaluate test agents for their efficacy on the disease associated with mutations of gene. More specifically, mice with different KRAS mutations were treated with EGFR inhibitors to address the question of resistant phenotypes elicited by different KRAS mutations. This design allows direct comparison of wild type and mutant isogenic pairs for treatment responses that are associated with the defined genetic variations.
as §1

[3] = system: SW48-KRAS (G13D/+) xenograft (HD 103-002); assay: Tumor volume of SW48-KRAS (G13D/+) xenograft in isogenic dual-xenograft mice
Procedure: as §2, §3, §4, §1

[4] = Erlotinib 50 mg/kg p.o. once daily, 14 days
[5] = Erlotinib 50 mg/kg, p.o., Qd x 14, SW48 KRAS(G12V/+), tumor volume
[6] = Erlotinib 50 mg/kg, p.o., Qd x 14, SW48 KRAS(G13D/+), tumor volume

Q: C#Cc1cccc(Nc2ncnc3cc(OCCOC)c(OCCOC)cc23)c1 [Erlotinib] was tested. Which “effect on tumor volume of the SW48-parental xenograft (FIG. 2A)” value ([1]; dual model with SW48-KRAS (G12V/+)) did it give?
A: reduced

Q: What about the “effect on tumor volume of the SW48-parental xenograft (FIG. 1A)” value ([1]; dual model with SW48-KRAS (G13D/+)) of the same molecule?
A: significantly reduced

Q: What about the “response of SW48 KRAS (G12V/+) compared to the parental line” value [2, 4] of the same molecule?
A: resistant

Q: What about the “reduction on the tumor volume of the SW48-KRAS (G12V/+) xenograft (FIG. 2B)” value ([2]; Erlotinib 50 mg/kg p.o. once daily, 14 days, compared with parental xenograft) of the same molecule?
A: not as significant as on the SW48-KRAS-parental xenograft

Q: And the “T/C on Day 21” value [2, 5]?
A: 86%

Q: And the “TGI on Day 21” value [2, 5]?
A: 14%

Q: What about the “response of SW48 KRAS (G13D/+) compared to the parental line” value [3, 4] of the same molecule?
A: remains sensitive

Q: And the “effect on tumor volume of the SW48-KRAS (G13D/+) xenograft (FIG. 1B)” value ([3]; Erlotinib 50 mg/kg p.o. once daily, 14 days, vs saline)?
A: significantly reduced

Q: What about the “T/C on Day 21” value [3, 6] of the same molecule?
A: 24%

Q: What about the “TGI on Day 21” value [3, 6] of the same molecule?
A: 76%
